Source: US8927535B2, “Cyclopropyl-fused-1,3-thiazepines as BACE1 and/or BACE2 inhibitors” (Hoffman-La Roche Inc., priority 2011, dated 2015)

Molecular target: T1, BACE2 (Rattus norvegicus, UniProt Q6IE75)
T1 construct: endogenous cellular BACE2 in the Ins1e rat cell line; endogenous in cells; host or cells: INS-TMEM27 (INS1e-derived rat cell line with doxycycline-inducible full-length hTMEM27)
T1 sequence (Q6IE75 63-514): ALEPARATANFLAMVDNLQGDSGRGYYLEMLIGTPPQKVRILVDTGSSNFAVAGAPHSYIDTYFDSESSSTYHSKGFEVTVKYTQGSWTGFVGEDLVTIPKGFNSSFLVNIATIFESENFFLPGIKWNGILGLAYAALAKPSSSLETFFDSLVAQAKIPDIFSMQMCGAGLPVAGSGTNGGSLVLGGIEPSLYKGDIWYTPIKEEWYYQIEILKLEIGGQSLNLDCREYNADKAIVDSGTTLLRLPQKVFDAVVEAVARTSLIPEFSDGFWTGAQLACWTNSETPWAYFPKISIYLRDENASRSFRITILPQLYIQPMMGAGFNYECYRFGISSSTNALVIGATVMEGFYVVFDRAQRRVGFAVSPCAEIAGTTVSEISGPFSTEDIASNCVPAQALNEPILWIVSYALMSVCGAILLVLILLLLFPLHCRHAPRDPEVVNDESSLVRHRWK
Assay: Assay for BACE inhibition by measuring cellular TMEM27 cleavage
Type: cell-based
Details: INS-TMEM27 (INS1e-derived) cells, endogenous BACE2, shed human TMEM27 in medium by ELISA
From the text: Assay for BACE Inhibition by Measuring Cellular TMEM27 Cleavage:
The assay uses the principle of inhibition of human TMEM27 cleavage by endogenous cellular BACE2 in the Ins1e rat cell line and shedding from the cell surface into the culture medium, followed by detection in an ELISA assay. Inhibition of BACE2 prevents the cleavage and shedding in a dose-dependent manner.
The stable cell line “INS-TMEM27” represents an INS1e-derived cell line with inducible expression (using the TetOn system) of full-length hTMEM27 in a doxycycline-dependent manner.
INS-TMEM27 cells are seeded in 96-well plates. After 2 days in culture, BACE2 inhibitor is added in a range of concentrations as required by the assay and after a further two hours, doxycycline is added to a final concentration of 500 ng/ml. The cells are incubated for a further 46 hours and the supernatant harvested for detection of shed TMEM27.
An ELISA assay (using a pair of mouse anti-human-TMEM27 antibodies, raised against the extracellular domain of TMEM27) is used for detection of TMEM27 in the culture medium. An EC50 for BACE2 inhibition is calculated using the ELISA readout for each inhibitor concentration with standard curve-fitting software such as XLFit for the Excel spreadsheet program.

NC1=N[C@@]2(c3cc(NC(=O)c4ccc(Cl)cn4)ccc3Cl)C[C@H]2CCS1 (racemic) [Example 4, N-(3-((1SR,7SR)-3-amino-4-thia-2-azabicyclo[5.1.0]oct-2-en-1-yl)-4-chlorophenyl)-5-chloropicolinamide]
IC50: 690 nM
